How the values were obtained:
[1] = test system: cyclooxygenase; test: ARBC whole cell cyclooxygenase assay (inhibition of PGF2α formation in RBL-1 cells); format: cell-based, rat; details: RBL-1 whole cells; 50% inhibition of PGF2α formation; calcium ionophore A23187 (5 μM); RIA
Experimental: (§1) ARBL/ARBC WHOLE CELL 5-LIPOXYGENASE AND CYCLOOXYGENASE ASSAYS The rat basophilic leukemia cell line (RBL-1) was obtained from the American Type Culture Collection (Rockville, Md.). Radioimmunoassay (RIA) kits of LTB4 and PGF2α were obtained from Amersham (Arlington Heights, Ill.) and Seragen (Boston, Mass.), respectively. RBL-1 cells are grown in suspension culture in Eagle's minimum essential medium supplemented with 12% fetal bovine serum at 37° C. in an incubator supplied with air-5% carbon dioxide. Cells are harvested by centrifugation. They are washed with cold phosphate buffered saline pH 7.4 (PBS; NaCl, 7.1 g; NaHPO, 1.15 g; KHPO, 0.2 g; and KCl, 0.2 g/l). Cells are finally suspended in PBS containing 1.0 mM calcium at a density of […] cells/ml. Cells are incubated with and without test agent (in DMSO) (1% DMSO is without effect on arachidonic acid metabolism) for ten minutes at room temperature. Calcium ionophore A23187 (5 μM) is added and cells are incubated for seven minutes at 37° C. The reaction is stopped by chilling the tubes on ice for ten minutes. Cells are separated by centrifugation and the supernatant is stored at -20°. Aliquots (100 μL) are analyzed for LTB4 and PGF2α using radioimmunoassay kits as provided by the supplier. […]

[2] = biological target: T1, 5-lipoxygenase (Rattus norvegicus, UniProt P12527); test: ARBL whole cell 5-lipoxygenase assay (inhibition of LTB4 formation in RBL-1 cells); format: cell-based; details: RBL-1 whole cells; 50% inhibition of LTB4 formation; calcium ionophore A23187 (5 μM); RIA
T1 construct: host or cells: RBL-1 (rat basophilic leukemia)
T1 sequence (P12527 1-673): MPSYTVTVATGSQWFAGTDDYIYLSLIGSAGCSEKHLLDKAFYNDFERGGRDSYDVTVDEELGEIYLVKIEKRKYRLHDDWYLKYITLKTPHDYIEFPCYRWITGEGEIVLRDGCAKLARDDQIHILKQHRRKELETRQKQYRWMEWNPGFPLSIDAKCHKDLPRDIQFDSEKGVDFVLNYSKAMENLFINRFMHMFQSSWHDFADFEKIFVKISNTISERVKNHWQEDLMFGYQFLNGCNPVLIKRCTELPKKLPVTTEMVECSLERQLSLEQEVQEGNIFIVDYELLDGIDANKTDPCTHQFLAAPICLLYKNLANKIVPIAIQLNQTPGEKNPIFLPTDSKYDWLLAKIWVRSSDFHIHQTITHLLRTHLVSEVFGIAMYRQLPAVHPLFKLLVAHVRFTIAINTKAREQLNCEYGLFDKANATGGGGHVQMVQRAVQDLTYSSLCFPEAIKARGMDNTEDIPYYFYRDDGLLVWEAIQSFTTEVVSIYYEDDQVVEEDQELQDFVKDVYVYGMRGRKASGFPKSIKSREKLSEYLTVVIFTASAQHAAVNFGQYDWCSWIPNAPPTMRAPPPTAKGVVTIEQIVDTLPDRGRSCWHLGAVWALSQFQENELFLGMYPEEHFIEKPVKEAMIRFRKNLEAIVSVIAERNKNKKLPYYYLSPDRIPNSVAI
Experimental: as §1

Work on CON(C)C(=O)c1nc(C(C)(C)C)c(O)c(C(C)(C)C)n1 [Example 1, 4,6-Bis(1,1-dimethylethyl)-5-hydroxy-N-methoxy-N-methyl-2-pyrimidinecarboxamide] yielded an IC50 [1] of 1350 nM and an IC50 [2] of 1180 nM.

Reference: patent US5240929A, “2-heterocyclic-5-hydroxy-1,3-pyrimidines useful as antiinflammatory agents” (Warner-Lambert Company, priority 1992, dated 1993)
